The values below come from patent publication US20260138969A1 (Korea Research Institute of Chemical Technology, priority 2023, published 2026).

As usually defined, the viability is a per cent measure of how many cells are alive, often set against a control. The EC50 is the concentration needed to bring the measured effect to its halfway point. The low end stands for an effect from little substance, the high end for a need for much substance.

Experiment [1] has as its system PC12 cells. The experiment is described as follows: Neuronal protective efficacy against MPP+ (MTT). The experiment is classed as cell-based. The settings on record: Rattus norvegicus, PC-12, MPP 2 mM, Control = 100, read-out: cell viability (AVE); for viability at 0.1 µM: compound 0.1 μM; for viability at 0.3 µM: compound 0.3 μM; for viability at 1 µM: compound 1 μM. On the procedure:
(§1) The neuronal toxicity substances 6-OHDA (6-hydroxydopamine hydrobromide) and MPP+ (1-methyl-4-phenylpyridinium) were purchased from Sigma-Aldrich (Saint Louis, MO, USA) and made into 100 mM DMSO stock. PC12 cells were seeded on 96-well plates with 4 pieces of 1×10 per well and incubated for one day. The cells were pretreated with each concentration of embodied compound for 1 h. Subsequently, 40 μM 6-OHDA and 2 mM MPP^+ were added and incubated for 24 hours, respectively. Subsequently, cell viability was measured using MTT (Invitrogen, MA, USA).

For the next experiment, the system named is SH-SY5Y cells. Description: Cytoprotective effects in MPP+-induced human neurons (CCK-8). The experiment is classed as cell-based. To be noted: MPP+ 5 mM induced cytotoxicity, cell viability by CCK-8. Here is the method: SH-SY5Y cells were purchased from ATCC and cultured at 37° C. and 5% CO2 in RPMI medium containing 10% FBS and 1% penicillin and streptomycin. MPP+ was purchased from Sigma Aldrich and treated with 5 mM to induce cytotoxicity.

Experiment [2] relates to α-Syn transgenic Parkinson's disease mouse model. The experiment is described as follows: α-Syn transgenic Parkinson's disease mouse model: step error (beam test). The class given is in vivo. To be noted: at 7 and 9 months; Memantine 10 mg/kg, Example 3 2/10/50 mg/kg, Example 2 2 mg/kg PO QD; vs G2. On the procedure:
(§2) The test drug was administered once daily (QD) via oral administration (PO) with a solution of 5 ml/kg for 5 months from 4 months to 9 months of age. Motor behavior tests (beam test) and neurological scores (modified Irwin test) were performed at 4 months (before administration), 7 months, and 9 months. After the final behavioral test, tissue samples were taken. Weight was measured on the same day once a week from 4 months of age until the end of the study.
The procedure described by Fleming et al. (J Neurosci, 24:9434-40, 2004) was adopted as the beam test (Challenging Beam Traversal). Exercise capacity was measured with a new beam test that was a modification of the existing beam walking test. The beam is made of Plexiglas and consists of four sections (each 25 cm and a total length of 1 m), each with a different width. The beam is designed to start at 3.5 cm wide and gradually narrow in increments of 0.5 cm×1 cm. A shelf 1 cm wide was placed 1.0 cm below the top surface of the beam.
The mouse was trained to cross the length of the beam, starting from the widest section and ending with the narrowest and most difficult section. The narrow end of the beam is designed to connect directly to the mouse's house cage. The mice were trained for two days before testing, and all training was carried out without a mesh grid. On the first day, two auxiliary exercises were performed, in which the mouse was placed on a beam and the home cage was placed close to the mouse. This induces it to move forward along the beam. […]
The error was counted if the limb (front or hind leg) passed through the grid during forward movement and was visible between the grid and the beam surface. […] Error was measured by scoring each limb slippage individually. For example, a mouse with three limbs slipping off the grid in one step was rated with an error score of 3 points, while a mouse with only one limb slipped off the grid in one step was evaluated with an error score of 1 in that step. […] The number of step errors and the time it took to cross were measured and averaged in all five experiments.

For experiment [3] the test system is unchanged. Description: α-Syn transgenic Parkinson's disease mouse model: TH staining of striatum. The experiment is classed as in vivo. To be noted: 9 months of age; Example 3 2/10/50 mg/kg, Example 2 2 mg/kg PO QD; vs G2. Here is the method: as §2
At 9 months of age, the measurement period ended, the mice were anesthetized, and then the experiment was terminated by cardiac puncture according to IACUC guidelines. Mice were perfused transcardially with 0.9% saline for tissue staining, followed by 4% paraformaldehyde until the mice were fixed. The brains were isolated and immobilized by soaking in 4% paraformaldehyde at 4° C. for 24 hours, followed by 30% sucrose added to PBS containing 0.02% sodium azide and stored at 4° C. for 3 days. Brain samples embedded in OCT compounds were sectioned to a thickness of 20 μm using Leica CM1950 (Leica Microsystems, Germany). The sections were stored at 4° C. in a preservation solution until they were stained by antibodies. […]
TH-stained brain tissue was imaged using an immunofluorescence microscope (Olympus, BZ21) in Olympus. The fluorescence intensity of the striatum was analyzed using Image J software.

The test system of experiment [4] is PC12 cells. Description: Neuronal protective efficacy against 6-OHDA (MTT). The class given is cell-based. To be noted: Rattus norvegicus, PC-12, 6-OHDA 40 μM, Control = 100, read-out: cell viability (AVE); for viability at 0.1 µM: compound 0.1 μM; for viability at 0.3 µM: compound 0.3 μM; for viability at 1 µM: compound 1 μM. On the procedure: as §1
In experiment [5] the test system is α-Syn transgenic Parkinson's disease mouse model. Description: α-Syn transgenic Parkinson's disease mouse model: neurological score (modified Irwin test). The experiment is classed as in vivo. The settings on record: Example 3 2/10/50 mg/kg, Example 2 2 mg/kg PO QD 5 months; vs TG+carrier (G2). On the procedure:
as §2
Scores were recorded by direct observation of mice in cages for neurological behavioral disorders, except for startle reflex, tail pinch, and righting reflex. To test the startle reflex, a small remote control was used to make loud noises and check behaviors such as jumping, stopping, and blinking quickly. For the […] reflex, each mouse was removed from the cage and placed with its back facing the floor so that the mouse could correct its posture on its own. The tail pinch reflex was tested by gently squeezing the tip of the tail with forceps.
A score of 0 was given if there were normal or no abnormal features such as motor activity, 1 point if mild abnormalities were observed, and 2 to 3 points were given if serious abnormalities were observed. The scores for all observed behaviors for each mouse were added, and the average of the added scores for each group was calculated.

As for `Cc1cc(F)c(C(=O)Nc2cccc(-n3nnc4c3CCCC4)n2)cc1-n1cnc(C2CC2)c1` [Example 3, 5-(4-cyclopropyl-1H-imidazole-1-yl)-2-fluoro-4-methyl-N-(6-(4,5,6,7-tetrahydro-1H-benzo[d][1,2,3]triazole-1-yl)pyridine-2-yl)benzamide], in the experiment on PC12 cells [1], the viability at 0.1 µM was determined as 87.4%, the viability at 0.3 µM came out at 87.6% and the viability at 1 µM is 89.9%. In the experiment on SH-SY5Y cells, this compound yielded an EC50 of 23 nM. In addition, the “number of step errors (beam test)” value in experiment [2] is listed as “significant reduction in the number of step errors compared to Group G2”. For the same compound, the “TH staining intensity of striatum” value in experiment [3] is given as “significantly higher than that of group G2”. Further, in the experiment on PC12 cells [4], the viability at 0.1 µM stood at 90%, the viability at 0.3 µM is 92% and the viability at 1 µM amounted to 92.8%. Also, the neurological score entry in experiment [5] is given as “significantly reduced the neurological score of TG mice compared to G2”.
As for `Cc1cc(F)c(C(=O)Nc2cccc(-n3nnc4c3CCC4)n2)cc1-n1cnc(C2CC2)c1` [Example 2, 5-(4-cyclopropyl-1H-imidazole-1-yl)-N-(6-(5,6-dihydrocyclopenta[d][1,2,3]triazole-1 (4H)-yl)pyridine-2-yl)-2-fluoro-4-methylbenzamide], in the experiment with PC12 cells [1], the viability at 0.1 µM is 83.9%, the viability at 0.3 µM was 91.7% and the viability at 1 µM worked out at 92.4%. Moreover, it took 64 nM to reach a half-maximal effect in the experiment with SH-SY5Y cells (EC50). The “number of step errors (beam test)” value in experiment [2] was “significant reduction in the number of step errors compared to Group G2”. For the same compound, in experiment [3], the “TH staining intensity of striatum” value is reported as “significantly higher than that of group G2”. Also, in the experiment on PC12 cells [4], the viability at 0.1 µM is 88.8%, the viability at 0.3 µM turned out to be 91.5% and the viability at 1 µM came out at 96.8%. For the same compound, the neurological score result in experiment [5] is “significantly reduced the neurological score of TG mice compared to G2”.
